# Source: article PMC5218480 (PLoS ONE, 2017)
# System: MV-4-11 cells
# Assay: Gene expression microarray analysis (Affymetrix PrimeView) and GSEA
# Format: cell-based, human
# Design: RFU PODN (11730768_x_at) / Fold change /veh PODN (11730768_x_at) / RFU LINC00158 (11744669_a_at) / Fold change /veh LINC00158 (11744669_a_at) / RFU DUSP10 (11751237_a_at) / Fold change /veh DUSP10 (11751237_a_at) / RFU ID3 (11757404_x_at) / Fold change /veh ID3 (11757404_x_at) / RFU PLEKHG5 (11737974_s_at) / Fold change /veh PLEKHG5 (11737974_s_at) / RFU LRRC4B (11730491_at) / Fold change /veh LRRC4B (11730491_at) / RFU GIMAP4 (11747438_a_at) / Fold change /veh GIMAP4 (11747438_a_at) / RFU KRT8 (11758183_x_at) / Fold change /veh KRT8 (11758183_x_at) / RFU CNN1 (11734310_a_at) / Fold change /veh CNN1 (11734310_a_at) / RFU VPS37D (11726825_at) / Fold change /veh VPS37D (11726825_at) / RFU C10orf10 (11716522_x_at) / Fold change /veh C10orf10 (11716522_x_at) / RFU KIR2DL2 /// KIR2DL4 /// KIR2DL5A /// KIR2DL5B /// KIR2DS1 /// KIR2DS2 /// KIR2DS3 /// KIR2DS4 /// KIR3DL3 /// KIR3DL3 /// KIR3DS1 (11738374_at) / Fold change /veh KIR2DL2 /// KIR2DL4 /// KIR2DL5A /// KIR2DL5B /// KIR2DS1 /// KIR2DS2 /// KIR2DS3 /// KIR2DS4 /// KIR3DL3 /// KIR3DL3 /// KIR3DS1 (11738374_at) / RFU C1QL1 (11718748_at) / Fold change /veh C1QL1 (11718748_at) / RFU TMPRSS4 (11747572_a_at) / Fold change /veh TMPRSS4 (11747572_a_at) / RFU HAMP (11756126_x_at) / Fold change /veh HAMP (11756126_x_at) / RFU RNFT2 (11725882_a_at) / Fold change /veh RNFT2 (11725882_a_at) / RFU NR4A2 (11747474_a_at) / Fold change /veh NR4A2 (11747474_a_at) / RFU ABCC12 (11746883_a_at) / Fold change /veh ABCC12 (11746883_a_at) / RFU TMEM136 (11760407_x_at) / Fold change /veh TMEM136 (11760407_x_at) / RFU CLDN22 /// WWC2 (11732394_at) / Fold change /veh CLDN22 /// WWC2 (11732394_at) / RFU HLA-DPB1 (11760878_x_at) / Fold change /veh HLA-DPB1 (11760878_x_at) / RFU SPINT1 (11716480_a_at) / Fold change /veh SPINT1 (11716480_a_at) / RFU GAP43 (11754022_s_at) / Fold change /veh GAP43 (11754022_s_at) / RFU A4GNT (11735810_at) / Fold change /veh A4GNT (11735810_at) / RFU PRB3 (11715151_x_at) / Fold change /veh PRB3 (11715151_x_at) / RFU TUBB4B (11761932_at) / Fold change /veh TUBB4B (11761932_at) / RFU CAPN14 (11732068_a_at) / Fold change /veh CAPN14 (11732068_a_at) / RFU TMCC2 (11721928_a_at) / Fold change /veh TMCC2 (11721928_a_at) / RFU IRGQ (11745062_a_at) / Fold change /veh IRGQ (11745062_a_at) / RFU FAM174B (11720279_a_at) / Fold change /veh FAM174B (11720279_a_at) / RFU TMPRSS4 (11748680_a_at) / Fold change /veh TMPRSS4 (11748680_a_at) / RFU FAM212B (11763350_a_at) / Fold change /veh FAM212B (11763350_a_at) / RFU PLEKHG5 (11743358_a_at) / Fold change /veh PLEKHG5 (11743358_a_at) / RFU ZSCAN30 (11745921_a_at) / Fold change /veh ZSCAN30 (11745921_a_at) / RFU CMKLR1 (11741424_a_at) / Fold change /veh CMKLR1 (11741424_a_at) / RFU LOC101060620 /// MAPK8IP1 (11723275_at) / Fold change /veh LOC101060620 /// MAPK8IP1 (11723275_at) / RFU SPTSSB (11747773_x_at) / Fold change /veh SPTSSB (11747773_x_at) / RFU PRSS12 (11739890_at) / Fold change /veh PRSS12 (11739890_at) / RFU BIN1 (11741810_x_at) / Fold change /veh BIN1 (11741810_x_at) / RFU WNT11 (11732464_a_at) / Fold change /veh WNT11 (11732464_a_at) / RFU C10orf10 (11716521_a_at) / Fold change /veh C10orf10 (11716521_a_at) / RFU C5orf56 (11738089_at) / Fold change /veh C5orf56 (11738089_at) / RFU CYB561 (11721691_x_at) / Fold change /veh CYB561 (11721691_x_at) / RFU ANKRD19P (11752326_a_at) / Fold change /veh ANKRD19P (11752326_a_at) / RFU OR2T12 /// OR2T33 /// OR2T8 (11738714_s_at) / Fold change /veh OR2T12 /// OR2T33 /// OR2T8 (11738714_s_at) / RFU VCAN (11748164_a_at) / Fold change /veh VCAN (11748164_a_at) / RFU JSRP1 (11732532_at) / Fold change /veh JSRP1 (11732532_at) / RFU KRTAP10-11 (11738290_x_at) / Fold change /veh KRTAP10-11 (11738290_x_at) / RFU MYO3A (11730013_a_at) / Fold change /veh MYO3A (11730013_a_at) / RFU EBF3 (11725865_a_at) / Fold change /veh EBF3 (11725865_a_at) / RFU CAMK2N1 (11719241_x_at) / Fold change /veh CAMK2N1 (11719241_x_at) / RFU C5orf56 (11738088_a_at) / Fold change /veh C5orf56 (11738088_a_at) / RFU OLFML3 (11715873_a_at) / Fold change /veh OLFML3 (11715873_a_at) / RFU LOC100653217 /// NTM (11731650_a_at) / Fold change /veh LOC100653217 /// NTM (11731650_a_at) / RFU MAPK11 (11762145_a_at) / Fold change /veh MAPK11 (11762145_a_at) / RFU FIZ1 (11724087_x_at) / Fold change /veh FIZ1 (11724087_x_at) / RFU OASL (11726364_x_at) / Fold change /veh OASL (11726364_x_at) / RFU SOX15 (11748057_x_at) / Fold change /veh SOX15 (11748057_x_at) / RFU CD79A (11719716_a_at) / Fold change /veh CD79A (11719716_a_at) / RFU HIST1H1D (11736915_at) / Fold change /veh HIST1H1D (11736915_at) / RFU CASKIN2 (11723855_a_at) / Fold change /veh CASKIN2 (11723855_a_at) / RFU LOC730098 (11760151_x_at) / Fold change /veh LOC730098 (11760151_x_at) / RFU OR4N2 (11742367_at) / Fold change /veh OR4N2 (11742367_at) / RFU PRRT2 (11749266_a_at) / Fold change /veh PRRT2 (11749266_a_at) / RFU SNX32 (11753110_a_at) / Fold change /veh SNX32 (11753110_a_at) / RFU CDHR5 (11726645_a_at) / Fold change /veh CDHR5 (11726645_a_at) / RFU RCAN1 (11760418_a_at) / Fold change /veh RCAN1 (11760418_a_at) / RFU FAM167A (11723789_a_at) / Fold change /veh FAM167A (11723789_a_at) / RFU FAM26E (11764081_at) / Fold change /veh FAM26E (11764081_at) / RFU ISYNA1 (11749810_s_at) / Fold change /veh ISYNA1 (11749810_s_at) / RFU ACY1 (11761880_at) / Fold change /veh ACY1 (11761880_at) / RFU 11764098_at / Fold change /veh 11764098_at / RFU SAMD14 (11745864_x_at) / Fold change /veh SAMD14 (11745864_x_at) / RFU NPB (11741838_a_at) / Fold change /veh NPB (11741838_a_at) / RFU TMPRSS6 (11731388_a_at) / Fold change /veh TMPRSS6 (11731388_a_at) / RFU KRTAP10-2 (11738614_at) / Fold change /veh KRTAP10-2 (11738614_at) / RFU ARHGAP8 /// PRR5-ARHGAP8 (11727945_x_at) / Fold change /veh ARHGAP8 /// PRR5-ARHGAP8 (11727945_x_at) / RFU KRTAP5-7 /// NADSYN1 (11734609_at) / Fold change /veh KRTAP5-7 /// NADSYN1 (11734609_at) / RFU RASL12 (11751679_a_at) / Fold change /veh RASL12 (11751679_a_at) / RFU CDKN2B (11736163_a_at) / Fold change /veh CDKN2B (11736163_a_at) / RFU PRF1 (11729649_at) / Fold change /veh PRF1 (11729649_at) / RFU, ZNF638 /// ZNF638-IT1 / Fold change vs veh, ZNF638 /// ZNF638-IT1 / RFU, PANK3 / Fold change vs veh, PANK3 / RFU, SH3YL1 / Fold change vs veh, SH3YL1 / RFU, ZEB2 / Fold change vs veh, ZEB2 / RFU, NRIP1 / Fold change vs veh, NRIP1 / RFU, PTTG1IP / Fold change vs veh, PTTG1IP / RFU, CAPN2 / Fold change vs veh, CAPN2 / RFU, MED14 / Fold change vs veh, MED14 / RFU, SNORA58 / Fold change vs veh, SNORA58 / RFU, C1orf63 / Fold change vs veh, C1orf63 / RFU, LRRFIP1 / Fold change vs veh, LRRFIP1 / RFU, NDUFAF7 / Fold change vs veh, NDUFAF7 / RFU, SLC12A2 / Fold change vs veh, SLC12A2 / RFU, IBTK / Fold change vs veh, IBTK / RFU, ESF1 / Fold change vs veh, ESF1 / Fold change vs veh, TMEM50B / RFU, TAOK1 / Fold change vs veh, TAOK1 / RFU, ACBD3 / Fold change vs veh, ACBD3 / RFU, TMA16 / Fold change vs veh, TMA16 / RFU, RWDD3 / Fold change vs veh, RWDD3 / RFU, BCAT1 / Fold change vs veh, BCAT1 / RFU, EDEM3 / Fold change vs veh, EDEM3 / RFU, TMEM33 / Fold change vs veh, TMEM33 / RFU, WDR75 / Fold change vs veh, WDR75 / RFU, AHCTF1 / Fold change vs veh, AHCTF1 / RFU, TFRC / Fold change vs veh, TFRC / RFU, ZDHHC17 / Fold change vs veh, ZDHHC17 / RFU, NOM1 / Fold change vs veh, NOM1 / RFU, ARL8B / Fold change vs veh, ARL8B / RFU, ZBTB11 / Fold change vs veh, ZBTB11 / RFU, TAMM41 / Fold change vs veh, TAMM41 / RFU, KIAA1704 /// LOC100996395 / Fold change vs veh, KIAA1704 /// LOC100996395 / RFU, ING1 / Fold change vs veh, ING1 / RFU, TRMT61B / Fold change vs veh, TRMT61B / RFU, FUBP3 / Fold change vs veh, FUBP3 / RFU, TP53 / Fold change vs veh, TP53 / RFU, TNKS2 / Fold change vs veh, TNKS2 / RFU, ZFP14 / Fold change vs veh, ZFP14 / RFU, ACTR2 / Fold change vs veh, ACTR2 / RFU, PPP3R1 / Fold change vs veh, PPP3R1 / RFU, PIK3R1 / Fold change vs veh, PIK3R1 / RFU, HNRNPA1 / Fold change vs veh, HNRNPA1 / RFU, RNF170 / Fold change vs veh, RNF170 / RFU, ZNF28 / Fold change vs veh, ZNF28 / RFU, RNGTT / Fold change vs veh, RNGTT / RFU, OGT / Fold change vs veh, OGT / RFU, BRD1 / Fold change vs veh, BRD1 / RFU, MARS / Fold change vs veh, MARS / RFU, ZNF655 / Fold change vs veh, ZNF655 / RFU, FAHD1 / Fold change vs veh, FAHD1 / RFU, BDP1 / Fold change vs veh, BDP1 / RFU, LRRCC1 / Fold change vs veh, LRRCC1 / RFU, ARID1A / Fold change vs veh, ARID1A / RFU, ZNF146 / Fold change vs veh, ZNF146 / RFU, ZNF330 / Fold change vs veh, ZNF330 / RFU, GPN3 / Fold change vs veh, GPN3 / RFU, C9orf123 / Fold change vs veh, C9orf123 / RFU, N4BP2L2 / Fold change vs veh, N4BP2L2 / RFU, ARFIP1 / Fold change vs veh, ARFIP1 / RFU, FAM179B / Fold change vs veh, FAM179B / RFU, BCL10 / Fold change vs veh, BCL10 / RFU, UHRF1BP1L / Fold change vs veh, UHRF1BP1L / RFU, BET1 / Fold change vs veh, BET1 / RFU, CNOT2 / Fold change vs veh, CNOT2 / RFU, ZNF268 / Fold change vs veh, ZNF268 / Fold change vs veh, ZNF507 / RFU, DGCR2 / Fold change vs veh, DGCR2 / RFU, WDSUB1 / Fold change vs veh, WDSUB1 / Fold change vs veh, HSP90B1 /// MIR3652 / RFU, ADSS / Fold change vs veh, ADSS / RFU, GK / Fold change vs veh, GK / RFU, ZNF148 / Fold change vs veh, ZNF148 / RFU, TAF9 / Fold change vs veh, TAF9 / RFU, SLC1A5 / Fold change vs veh, SLC1A5 / RFU, SLMO2 / Fold change vs veh, SLMO2 / RFU, ABCC4 / Fold change vs veh, ABCC4 / RFU, LOC101060439 /// RAP1B / Fold change vs veh, LOC101060439 /// RAP1B / RFU, RFX7 / Fold change vs veh, RFX7 / RFU, GTPBP10 / Fold change vs veh, GTPBP10 / RFU, CNEP1R1 / Fold change vs veh, CNEP1R1 / RFU, BIVM-ERCC5 /// ERCC5 / Fold change vs veh, BIVM-ERCC5 /// ERCC5 / RFU, ILF3 / Fold change vs veh, ILF3 / RFU 11762660_at / Fold change /veh 11762660_at / RFU VCAN (11757783_s_at) / Fold change /veh VCAN (11757783_s_at) / RFU DDX43 (11728927_at) / Fold change /veh DDX43 (11728927_at) / RFU KRT8 (11758188_x_at) / Fold change /veh KRT8 (11758188_x_at) / RFU NKD1 (11759106_at) / Fold change /veh NKD1 (11759106_at) / RFU SRD5A1 (11742802_a_at) / Fold change /veh SRD5A1 (11742802_a_at) / RFU TPSAB1 /// TPSB2 (11721975_s_at) / Fold change /veh TPSAB1 /// TPSB2 (11721975_s_at) / RFU GSTM3 (11746129_a_at) / Fold change /veh GSTM3 (11746129_a_at) / RFU IL23R (11737362_x_at) / Fold change /veh IL23R (11737362_x_at) / RFU TMEM51 (11727254_a_at) / Fold change /veh TMEM51 (11727254_a_at) / RFU PIWIL2 (11732686_x_at) / Fold change /veh PIWIL2 (11732686_x_at) / RFU ORM1 (11744905_x_at) / Fold change /veh ORM1 (11744905_x_at) / RFU CCDC152 (11743942_at) / Fold change /veh CCDC152 (11743942_at) / RFU ECM1 (11717891_a_at) / Fold change /veh ECM1 (11717891_a_at) / RFU IL23R (11748794_a_at) / Fold change /veh IL23R (11748794_a_at) / RFU TNFAIP8L3 (11732012_x_at) / Fold change /veh TNFAIP8L3 (11732012_x_at) / RFU MBOAT4 (11741988_at) / Fold change /veh MBOAT4 (11741988_at) / RFU 11764193_at / Fold change /veh 11764193_at / RFU TMEM53 (11763286_at) / Fold change /veh TMEM53 (11763286_at) / RFU MAGEB2 (11727129_at) / Fold change /veh MAGEB2 (11727129_at) / RFU TMEM200A (11744735_a_at) / Fold change /veh TMEM200A (11744735_a_at) / RFU CCDC152 (11751479_a_at) / Fold change /veh CCDC152 (11751479_a_at) / RFU FAM211A (11726209_a_at) / Fold change /veh FAM211A (11726209_a_at) / RFU RGS16 (11746705_a_at) / Fold change /veh RGS16 (11746705_a_at) / RFU VCAN (11755009_s_at) / Fold change /veh VCAN (11755009_s_at) / RFU RHOB (11743442_s_at) / Fold change /veh RHOB (11743442_s_at) / RFU RGS16 (11720943_a_at) / Fold change /veh RGS16 (11720943_a_at) / RFU RGS16 (11720944_at) / Fold change /veh RGS16 (11720944_at) / RFU, VPS4B / Fold change vs veh, VPS4B / RFU, CREB1 / Fold change vs veh, CREB1 / RFU, DNAJC13 / Fold change vs veh, DNAJC13 / RFU, GNAQ / Fold change vs veh, GNAQ / RFU, CDK5R1 / Fold change vs veh, CDK5R1 / RFU, ZRANB3 / Fold change vs veh, ZRANB3 / RFU, CUL4A / Fold change vs veh, CUL4A / RFU, CCNY / Fold change vs veh, CCNY / RFU, UFL1 / Fold change vs veh, UFL1 / RFU, COG3 / Fold change vs veh, COG3 / RFU, DIAPH2 / Fold change vs veh, DIAPH2 / RFU, SKA2 / Fold change vs veh, SKA2 / RFU, AFF3 / Fold change vs veh, AFF3 / RFU, LMF1 / Fold change vs veh, LMF1 / RFU, IPO11 / Fold change vs veh, IPO11 / RFU, DFFB / Fold change vs veh, DFFB / RFU, FOXP1 / Fold change vs veh, FOXP1 / RFU, CARD8 / Fold change vs veh, CARD8 / RFU, STRN3 / Fold change vs veh, STRN3 / RFU, ADK / Fold change vs veh, ADK / RFU, RASSF2 / Fold change vs veh, RASSF2 / RFU, WIPF1 / Fold change vs veh, WIPF1 / RFU, LARP1B / Fold change vs veh, LARP1B / RFU, RASA1 / Fold change vs veh, RASA1 / RFU, RB1 / Fold change vs veh, RB1 / RFU, PPFIA1 / Fold change vs veh, PPFIA1 / RFU, MAT2A / Fold change vs veh, MAT2A / RFU, CCT5 / Fold change vs veh, CCT5 / RFU, WDR92 / Fold change vs veh, WDR92 / RFU, CUX1 / Fold change vs veh, CUX1 / RFU, TTC7A / Fold change vs veh, TTC7A / RFU, TMEM135 / Fold change vs veh, TMEM135 / RFU, DEPTOR / Fold change vs veh, DEPTOR / RFU, CPM / Fold change vs veh, CPM / RFU, DNAJB6 / Fold change vs veh, DNAJB6 / RFU, CACNA2D3 / Fold change vs veh, CACNA2D3 / RFU, DTX4 / Fold change vs veh, DTX4 / RFU, TFCP2 / Fold change vs veh, TFCP2 / RFU, GMCL1 /// GMCL1P1 / Fold change vs veh, GMCL1 /// GMCL1P1 / RFU, AEBP2 / Fold change vs veh, AEBP2 / RFU, SNHG1 /// SNORD22 /// SNORD25 /// SNORD26 /// SNORD27 /// SNORD28 /// SNORD29 /// SNORD31 / Fold change vs veh, SNHG1 /// SNORD22 /// SNORD25 /// SNORD26 /// SNORD27 /// SNORD28 /// SNORD29 /// SNORD31 / Fold change (Aza/veh), C12orf56 (ProbeSet 11735607_a_at) / Fold change (ACY-1035/veh), C12orf56 (ProbeSet 11735607_a_at) / Fold change (Aza/veh), FGFR1OP (ProbeSet 11751329_s_at) / Fold change (ACY-1035/veh), FGFR1OP (ProbeSet 11751329_s_at) / Fold change (Aza/veh), VPS36 (ProbeSet 11739960_a_at) / Fold change (ACY-1035/veh), VPS36 (ProbeSet 11739960_a_at) / RFU SYPL1 (11715823_x_at) / Fold change /veh SYPL1 (11715823_x_at) / RFU IGFBP7 (11715501_s_at) / Fold change /veh IGFBP7 (11715501_s_at) / RFU REEP3 (11722064_at) / Fold change /veh REEP3 (11722064_at) / RFU IGLL1 (11728026_x_at) / Fold change /veh IGLL1 (11728026_x_at): dose or concentration left out as unconfirmed
# Details: ProbeSet 11732433_s_at; LIST B
compound,measurement,value
Nc1ncn([C@@H]2O[C@H](CO)[C@@H](O)[C@H]2O)c(=O)n1 [azacitidine],"RFU, GK",260.90 RFU
